How the values were obtained:
[1] = test system: cardiac tissue constructs; experiment: Inotropic response to ionic calcium (force vs calcium concentration of the bath); format: cell-based, rat; conditions: explanted constructs, calcium reintroduced after EGTA removal
Protocol: The effect of the addition of exogenous calcium on contractility was investigated in the constructs according to the present invention. First, CM in the bath was replaced with calcium-free DMEM (Invitrogen). Known volumes of 100 mM ethylene glycol-bis(2-aminoethylether)-N,N,N′,N′-tetraacetic acid (EGTA) were then added to the bath to bind residual stores of calcium in the constructs. At each incremental addition of EGTA, twitch stimulation was applied and the force of contraction was measured. Removal of calcium was considered to be complete when the force of contraction was not detectable and no further EGTA was added. At this point, the calcium-free DMEM in the bath was aspirated and the construct was washed 3 times with fresh calcium-free DMEM. Known volumes of 100 mM calcium were then added and stimulated contraction forces were re-evaluated with each addition. This process was repeated until there was no further increase in the active force with the addition of calcium. The relationship of calcium concentration of the bath to force of contraction was then plotted.
The pCa1/2 of mammalian cardiac tissue has been reported in the range 5.9 to 7.0 (see Bers, Excitation-Contraction Coupling and Cardiac Contractile Force, Norwell: Kluwer Academic Publishers, 2002). […] The inotropic response to external calcium is an indicator of the presence of functional calcium handling machinery.

cardioids = conditions: prior publication US 2004/0132184; cited from earlier work
[2] = test system: cardiac tissue constructs
Protocol: Turning now to FIG. 7, the response to epinephrine was studied in four constructs according to the present invention by adding known concentrations of epinephrine to the CM, with the constructs still attached to the force transducer. […] The concentration of epinephrine was calculated based on the typical dosage given to an adult for cardiac resuscitation. The spontaneous contractility of the constructs was recorded for a period of 5 minutes after the addition of epinephrine.

Row | Structure (SMILES) | pCa1/2 [1] | response of cardioids (cardioids) | duration of rapid contraction pattern (resembling tachyarrhythmia) ([2]; 0.2 μg/ml) | effect on spontaneous contractility ([2]; 0.2 μg/ml in culture bath, four constructs)
1 | [Ca+2] [calcium] | 3.04 | positive inotropy | – | –
2 | CNC[C@H](O)c1ccc(O)c(O)c1 [epinephrine] | – | positive chronotropy | 60 to 90 s | re-initiated spontaneous contractions
